According to patent US20120108592A1, “PHARMACEUTICAL COMPOSITIONS AND METHODS OF USE OF SALICYLANILIDES FOR TREATMENT OF HEPATITIS VIRUSES” (priority 2010, published 2012):
Values joined by “and” are separate entries in the source; they are usually repeats but may differ in a detail not shown here. Equal entries are not always repeated. “Also recorded” adds a separate entry of the source. Where two headings read alike, the source gives them in different places.

Experiments:
[1] = system: AVA5 HCV replicon cell line; assay: Primary HCV replicon cell assay, cytotoxicity (neutral red dye uptake); assay type: cell-based; conditions: 3 days of treatment
Protocol: (§4) Antiviral activity of test compounds was assessed in a 3-day assay using the stably-expressing HCV replicon cell line, AVA5 (sub-genomic CONI, genotype 1b) [Korba, B. E. et al. Antiviral Res. 77, 56-63 (2008); Blight et al., Science 290, 1972-1974 (2000)] maintained as sub-confluent cultures on 96-well plates as previously described [Okuse et al., Antiviral Research 65, 23-34 (2005)]. Antiviral activity was determined by blot hybridization analysis of intracellular HCV RNA (normalized to the level of cellular B-actin RNA in each culture sample) and cytotoxicity was assessed by neutral red dye uptake after 3 days of treatment. Additional studies were performed using Huh7 cells containing another HCV replicon, H/FL-Neo, a genotype la full length construct [Blight et al., J. Virol. […] For studies involving human serum, standard culture medium (which contains 10% fetal bovine serum) and assay conditions were maintained.

[2] = Secondary HCV replicon cell assay genotype 1a, cytotoxicity (neutral red dye uptake); assay type: cell-based; conditions: human
Protocol: as §4

[3] = system: HBV virion in 2.2.15 cells; assay: HBV antiviral assay in 2.2.15 cells, virion (VIR) HBV DNA; assay type: cell-based; conditions: Hepatitis B virus; for EC50: read-out: EC50 (VIR); for EC90: read-out: EC90 (VIR)
Protocol: (§5) HBV antiviral assays were conducted as previously described [Korba, B. E. et al. Antiviral Res. 77, 56-63 (2008);].

[4] = system: HBV replication intermediates in 2.2.15 cells; assay: HBV antiviral assay in 2.2.15 cells, replication intermediates (RI) HBV DNA; assay type: cell-based; conditions: Hepatitis B virus; for EC50: read-out: EC50 (RI)
Protocol: as §5

[5] = cited from earlier work
[6] = system: HCV replicon cell line, AVA5 (sub-genomic CONI, genotype 1b); assay: Secondary HCV replicon cell assay genotype 1b, antiviral activity; assay type: cell-based; conditions: Hepatitis C virus; for EC50: 2-fold depression of intracellular HCV RNA; for EC90: 10-fold depression of intracellular HCV RNA
Protocol: (§1) Antiviral activity of test compounds was assessed in a 3-day assay using the stably-expressing HCV replicon cell line, AVA5 (sub-genomic CONI, genotype 1b) [Korba, B. E. et al. Antiviral Res. 77, 56-63 (2008); Blight et al., Science 290, 1972-1974 (2000)] maintained as sub-confluent cultures on 96-well plates as previously described [Okuse et al., Antiviral Research 65, 23-34 (2005)]. Antiviral activity was determined by blot hybridization analysis of intracellular HCV RNA (normalized to the level of cellular B-actin RNA in each culture sample) and cytotoxicity was assessed by neutral red dye uptake after 3 days of treatment. Additional studies were performed using Huh7 cells containing another HCV replicon, H/FL-Neo, a genotype la full length construct [Blight et al., J. Virol. 77, 3181-3190 (2003)]. For studies involving human serum, standard culture medium (which contains 10% fetal bovine serum) and assay conditions were maintained.
(§2) EC50, EC90 and CC50 values (±standard deviations [S.D.]) were calculated by linear regression analysis using data combined from all treated cultures (Korba, B. E. et al. Antiviral Res. 77, 56-63 (2008)). […] Selectivity index (S.I.) was calculated as CC50/EC90 for HBV assays and CC50/EC50 for HCV assays.

cytochrome P450 enzymes = conditions: cited from earlier work
[7] = Secondary HCV replicon cell assay genotype 1b, cytotoxicity (neutral red dye uptake); assay type: cell-based; conditions: human
Protocol: as §4

[8] = system: HCV replicon H/FL-Neo, genotype 1a full length construct, in Huh7 cells; assay: Secondary HCV replicon cell assay genotype 1a, antiviral activity; assay type: cell-based; conditions: Hepatitis C virus; for EC50: Huh-7, 2-fold depression of intracellular HCV RNA; for EC90: Huh-7, 10-fold depression of intracellular HCV RNA
Protocol: as §1, §2

[9] = system: HCV replicon cell line, AVA5 (sub-genomic CONI, genotype 1b); assay: Primary HCV replicon cell assay, antiviral activity (intracellular HCV RNA, blot hybridization); assay type: cell-based; conditions: Hepatitis C virus, Ava5, 72 h, 3-day assay; for EC50: 2-fold depression of intracellular HCV RNA; for EC90: 10-fold depression of intracellular HCV RNA
Protocol: as §1, §2

[10] = Cytotoxicity in 2.2.15 cells (neutral red dye uptake); assay type: cell-based; conditions: human, nine daily doses
Protocol: Briefly, confluent cultures of 2.2.15 cells were maintained on 96-well flat-bottomed tissue culture plates (confluence in this culture system is required for active, high levels of HBV replication equivalent to that observed in chronically-infected individuals. Cultures were treated with nine consecutive daily doses of the test compounds. HBV DNA levels were assessed by quantitative blot hybridization 24 hr. after the last treatment. Cytotoxicity was assessed by uptake of neutral red dye 24 hr. following the last treatment.

[11] = Primary HCV replicon cell assay, cytotoxicity (neutral red dye uptake); assay type: cell-based; conditions: human, 3 days of treatment
Protocol: as §4

[12] = system: J6/JFH-1 HCV (genotype 2a) in Huh 7.5 cells; assay: Infectious genotype 2a HCV cell culture assay (RT-PCR viral load); assay type: cell-based, hepatitis C virus (HCV); conditions: genotype G2a; for inhibition of J6/JFH-1 HCV replication: 1 μM test concentration; for relative activity / potency versus NTZ: at 1 μM, % of NTZ
Protocol: (§3) Genotype 2a antiviral assays were conducted as previously described [Broering R. et al., Gut, 59, 1111-1119 (2010)]. […] Cell viability was determined using the Calcein assay kit (Biotium, Inc. Hayward, Calif., USA). The alternate method for measuring cell cytotoxicity was via the Guava Technologies ViaCount assay (Millipore) The ViaCount Assay provides rapid and reliable determinations of viability and total cell count. It distinguishes viable and non-viable cells based on differential permeabilities of two DNA-binding dyes in the Guava ViaCount® Reagent. The nuclear dye stains only nucleated cells, while the viability dye brightly stains dying cells. This combination of dyes enables the Guava ViaCount Assay to distinguish viable, apoptotic, and dead cells. Debris is excluded from results based on negative staining with the nuclear dye.
HCV replication levels were determined by RT-PCR on RNA from cell culture supernatants. J6-infected Huh 7.5 cells were seeded in 12-well plates at a density of 2.0E5 cells/well in 1.5 mL of DMEM supplemented with 10% FBS and 1% Pen/Strep. […] A positive control of IFN-α at concentrations of 10 IU/mL and 50 IU/mL, negative control wells containing mock incubations of DMEM with 1 uL and 10 uL (the same volume of the molecular compounds at 1 uM and 10 uM, respectively) of DMSO was included to rule out nonspecific effects of DMSO on the cells, and J6-infected with only DMEM were used as negative controls. A final control group consisted of un-infected Huh 7.5 cells, plated at the same time and density as the J6-infected cells on a separate plate. 48 hours and 120 hours after incubation with thiazolides, the media was collected and frozen, cells were washed 2× with PBS, and lysed in 500 uL of lysis buffer per well. Following lysis, RNA was extracted from the cells using the RNAqueous-4PCR Kit from Ambion, and the RNA concentration determined using the Nanoprop® machine. Reverse-transcription reactions produced 1.5 μg of cDNA per sample, which was then used for rt-PCR to quantify the HCV viral load in each sample. Analysis of the rt-PCR results generated the fold increases and decreases of the HCV viral load in comparison to untreated J6 cells.

Huh 7.5 cells = assay: Cytotoxicity in Huh 7.5 cells (Calcein / ViaCount assay); assay type: cell-based
Protocol: as §3

[13] = system: Huh7 cells containing H/FL-Neo replicon; assay: Secondary HCV replicon cell assay genotype 1a, cytotoxicity (neutral red dye uptake); assay type: cell-based
Protocol: as §4

[14] = system: AVA5 HCV replicon cell line; assay: Secondary HCV replicon cell assay genotype 1b, cytotoxicity (neutral red dye uptake); assay type: cell-based
Protocol: as §4

[15] = AVA5 HCV replicon cells (sub-genomic CON1, genotype 1b)
[16] = AVA5 HCV replicon cells (sub-genomic CON1)
[17] = HBV virion DNA, 2.2.15 cells, nine daily doses

Compound	CC50 at 3 days [2] [nM]	EC50 [6] [nM]	EC90 [6] [nM]	EC50 [8] [nM]	EC90 [8] [nM]	EC50 [9] [nM]	EC90 [9] [nM]	CC50 at 9 days [10] [nM]	CC50 at 3 days [11, 15] [nM]	inhibition of J6/JFH-1 HCV replication [12]	relative activity / potency versus NTZ [12] [%]	cytotoxic effect in Huh 7.5 cells (Huh 7.5 cells)	CC50 at 3 days [7, 16] [nM]	EC50 [3, 17] [nM]	other results
O=C(Nc1ncc([N+](=O)[O-])s1)c1ccccc1O [TIZ, tizoxanide, reference compound]	27000	190	920	230	1000	151	813	> 100000	–	–	–	–	–	–	CC50 [1]: 15000 nM; EC50 [3]: 150 nM; EC90 [3]: 580 nM; EC50 [4]: 460 nM; EC90 ([4]; read-out: EC90 (RI)): 1200 nM; fraction of oral dose excreted in feces as TIZ ([5]; oral dose of NTZ): Approximately two-thirds; maximum serum concentration of TIZ ([5]; oral, one 500 mg NTZ tablet (Alinia) with food): approximately 10 μg/mL and ~37 μM; elimination half-life from plasma ([5]; plasma): approximately 1.5 hours; inhibition of cytochrome P450 enzymes (cytochrome P450 enzymes): does not inhibit; CC50 at 3 days [7]: 28000 nM
O=C(Nc1cccc(F)c1)c1ccccc1O [Compound 3, N-(3-fluorophenyl)-2-hydroxybenzamide]	9900	600	2600	420	3300	820	2700	–	> 100000	shown to inhibit J6/JFH-1HCV replication	65	None of these compounds showed a cytotoxic effect	11000	–	–
CC(=O)Oc1ccccc1C(=O)Nc1ncc([N+](=O)[O-])s1 [NTZ, nitazoxanide, reference compound]	–	250	950	330	1100	210	977	> 100000	–	demonstrated efficacy with regards to HCV replication; also recorded: shown to inhibit J6/JFH-1HCV replication	–	without being cytotoxic; also recorded: None of these compounds showed a cytotoxic effect	–	120	CC50 at 3 days [11]: 31000 nM; CC50 [13]: 49000 nM; EC50 ([4]; HBV replication intermediates, 2.2.15 cells, nine daily doses): 590 nM; detection in plasma ([5]; after oral 500 mg NTZ tablet): not detected in plasma; CC50 [14]: 35000 nM
COC(=O)c1ccc(NC(=O)c2ccccc2OC(C)=O)cc1 [Compound 44, methyl 4-(2-acetoxybenzamido)benzoate]	7500	350	4500	300	5100	58	461	–	4400	shown to inhibit J6/JFH-1HCV replication	53	None of these compounds showed a cytotoxic effect	6800	–	–
O=C(Nc1cc(C(F)(F)F)ccc1Cl)c1ccccc1O [Compound 41, N-(2-chloro-5-(trifluoromethyl)phenyl)-2-hydroxybenzamide]	680	45	177	55	244	5	32	> 100000	330	–	–	–	790	3700	EC90 [3, 17]: 13000 nM
